Results: ChEMBL document CHEMBL4422651, “Revisiting tubercidin against kinetoplastid parasites: Aromatic substitutions at position 7 improve activity and reduce toxicity” (Eur J Med Chem, 2019)
The source made the active and inactive calls. No cut-off for these calls is given here.

Tests used:
[1] = biological target: T1, CYP450 (Homo sapiens, UniProt P04798+P05177+P05181+P08684+P10632+P10635+P11509+P11712+P13584+P20813+P20815+P20853+P24462+P24903+P33260+P33261+P51589+P78329+P98187+Q02928+Q08477+Q16678+Q16696+Q5TCH4+Q6VVX0+Q7Z449+Q8TAV3+Q96SQ9+Q9HB55); assay: Drug metabolism in human liver S9 fraction assessed as CYP450-mediated metabolism by measuring parent compound remaining at 5 uM measured immediately in presence of NADPH by UPLC analysis; assay type: ADME, subcellular; conditions: read-out: Stability
[2] = Drug metabolism in rat liver S9 fraction assessed as UGT-mediated metabolism by measuring parent compound remaining at 5 uM measured after 60 mins in presence of UDPGA by UPLC analysis; assay type: ADME, subcellular; conditions: s9, 1 h
[3] = tested on: Trypanosoma brucei; assay: Antitrypanosomal activity against pentamidine/diminazene/melaminophenyl arsenical resistant Trypanosoma brucei B48 after 48 hrs by alamar blue assay; assay type: functional, organism-based; conditions: B48, 48 h
[4] = Inhibition of [3H]-adenosine transport at Trypanosoma brucei Adenosine transporter P1 expressed in pentamidine/diminazene/melaminophenyl arsenical resistant Trypanosoma brucei B48 bloodstream forms after 60 secs by scintillation counting analysis
[5] = tested on: Trypanosoma brucei; assay: Resistance factor, ratio of EC50 for isometamidium resistant Trypanosoma brucei […] to EC50 for wild type Trypanosoma brucei Lister 427; assay type: functional
[6] = biological target: T2, UGT (Homo sapiens, UniProt O60656+O75310+O75795+P06133+P0DTE4+P0DTE5+P16662+P19224+P22309+P22310+P35503+P35504+P36537+P54855+Q6UWM9+Q9BY64+Q9HAW7+Q9HAW8+Q9HAW9); assay: Drug metabolism in human liver S9 fraction assessed as UGT-mediated metabolism by measuring parent compound remaining at 5 uM measured after 60 mins in presence of UDPGA by UPLC analysis; assay type: ADME, subcellular; conditions: read-out: Stability
[7] = tested on: Trypanosoma brucei rhodesiense; assay: Antitrypanosomal activity against Trypanosoma brucei rhodesiense STIB-900 after 48 hrs by alamar blue assay; assay type: functional, organism-based; conditions: STIB-900, 48 h
[8] = tested on: CYP450; assay: Drug metabolism in rat liver S9 fraction assessed as CYP450-mediated metabolism by measuring parent compound remaining at 5 uM measured after 30 mins in presence of NADPH by UPLC analysis; assay type: ADME, subcellular; conditions: read-out: Stability
[9] = tested on: Trypanosoma brucei; assay: Resistance factor, ratio of EC50 for pentamidine/diminazene/melaminophenyl arsenical resistant Trypanosoma brucei B48 to EC50 for wild type Trypanosoma brucei Lister 427; assay type: functional
[10] = tested on: CYP450; assay: Drug metabolism in mouse liver S9 fraction assessed as CYP450-mediated metabolism by measuring parent compound remaining at 5 uM measured after 15 mins in presence of NADPH by UPLC analysis; assay type: ADME, subcellular; conditions: read-out: Stability
[11] = Selectivity index, ratio of EC50 for human MRC5 cells to EC50 for Trypanosoma brucei rhodesiense STIB-900; assay type: toxicity; conditions: read-out: Ratio EC50
[12] = tested on: CYP450; assay: Drug metabolism in rat liver S9 fraction assessed as CYP450-mediated metabolism by measuring parent compound remaining at 5 uM measured immediately in presence of NADPH by UPLC analysis; assay type: ADME, subcellular; conditions: read-out: Stability
[13] = biological target: T1, CYP450; assay: Drug metabolism in human liver S9 fraction assessed as CYP450-mediated metabolism by measuring parent compound remaining at 5 uM measured after 60 mins in presence of NADPH by UPLC analysis; assay type: ADME, subcellular; conditions: read-out: Stability
[14] = tested on: CYP450; assay: Drug metabolism in rat liver S9 fraction assessed as CYP450-mediated metabolism by measuring parent compound remaining at 5 uM measured after 15 mins in presence of NADPH by UPLC analysis; assay type: ADME, subcellular; conditions: read-out: Stability
[15] = tested on: CYP450; assay: Drug metabolism in mouse liver S9 fraction assessed as CYP450-mediated metabolism by measuring parent compound remaining at 5 uM measured after 60 mins in presence of NADPH by UPLC analysis; assay type: ADME, subcellular; conditions: read-out: Stability
[16] = tested on: CYP450; assay: Drug metabolism in rat liver S9 fraction assessed as CYP450-mediated metabolism by measuring parent compound remaining at 5 uM measured after 60 mins in presence of NADPH by UPLC analysis; assay type: ADME, subcellular; conditions: read-out: Stability
[17] = tested on: Trypanosoma brucei; assay: Antitrypanosomal activity against isometamidium resistant Trypanosoma brucei ISMR1 after 48 hrs by alamar blue assay; assay type: functional, organism-based; conditions: ISMR1, 48 h
[18] = tested on: Trypanosoma brucei; assay: Resistance factor, ratio of EC50 for Trypanosoma brucei TbAT1-KO to EC50 for wild type Trypanosoma brucei Lister 427; assay type: functional
[19] = tested on: Trypanosoma congolense; assay: Antitrypanosomal activity against Trypanosoma congolense by resazurin assay; assay type: functional, organism-based
[20] = tested on: Trypanosoma brucei; assay: Antitrypanosomal activity against wild type Trypanosoma brucei Lister 427 after 48 hrs by alamar blue assay; assay type: functional, organism-based; conditions: Lister 427, 48 h
[21] = tested on: UGT; assay: Drug metabolism in mouse liver S9 fraction assessed as UGT-mediated metabolism by measuring parent compound remaining at 5 uM measured after 15 mins in presence of UDPGA by UPLC analysis; assay type: ADME, subcellular; conditions: read-out: Stability
[22] = biological target: T1, CYP450; assay: Drug metabolism in human liver S9 fraction assessed as CYP450-mediated metabolism by measuring parent compound remaining at 5 uM measured after 15 mins in presence of NADPH by UPLC analysis; assay type: ADME, subcellular; conditions: read-out: Stability
[23] = tested on: UDP-glucuronosyltransferases (UGTs); assay: Drug metabolism in human liver S9 fraction assessed as UGT-mediated metabolism by measuring parent compound remaining at 5 uM measured after 30 mins in presence of UDPGA by UPLC analysis; assay type: ADME, subcellular; conditions: s9, 0.5 h
[24] = biological target: T2, UGT; assay: Drug metabolism in human liver S9 fraction assessed as UGT-mediated metabolism by measuring parent compound remaining at 5 uM measured immediately in presence of UDPGA by UPLC analysis; assay type: ADME, subcellular; conditions: read-out: Stability
[25] = tested on: UDP-glucuronosyltransferases (UGTs); assay: Drug metabolism in human liver S9 fraction assessed as UGT-mediated metabolism by measuring parent compound remaining at 5 uM measured after 15 mins in presence of UDPGA by UPLC analysis; assay type: ADME, subcellular; conditions: s9, 0.25 h
[26] = Selectivity index, ratio of EC50 for human MRC5 cells to EC50 for Trypanosoma brucei brucei Squib 427; assay type: toxicity; conditions: read-out: Ratio EC50
[27] = tested on: UGT; assay: Drug metabolism in mouse liver S9 fraction assessed as UGT-mediated metabolism by measuring parent compound remaining at 5 uM measured after 30 mins in presence of UDPGA by UPLC analysis; assay type: ADME, subcellular; conditions: read-out: Stability
[28] = tested on: Trypanosoma brucei; assay: Antitrypanosomal activity against Trypanosoma brucei TbAT1-KO after 48 hrs by alamar blue assay; assay type: functional, organism-based
[29] = Drug metabolism in rat liver S9 fraction assessed as UGT-mediated metabolism by measuring parent compound remaining at 5 uM measured after 30 mins in presence of UDPGA by UPLC analysis; assay type: ADME, subcellular; conditions: s9, 0.5 h
[30] = tested on: UGT; assay: Drug metabolism in rat liver S9 fraction assessed as UGT-mediated metabolism by measuring parent compound remaining at 5 uM measured after 15 mins in presence of UDPGA by UPLC analysis; assay type: ADME, subcellular; conditions: read-out: Stability
[31] = tested on: CYP450; assay: Drug metabolism in mouse liver S9 fraction assessed as CYP450-mediated metabolism by measuring parent compound remaining at 5 uM measured after 30 mins in presence of NADPH by UPLC analysis; assay type: ADME, subcellular; conditions: read-out: Stability
[32] = biological target: T1, CYP450; assay: Drug metabolism in human liver S9 fraction assessed as CYP450-mediated metabolism by measuring parent compound remaining at 5 uM measured after 30 mins in presence of NADPH by UPLC analysis; assay type: ADME, subcellular; conditions: read-out: Stability
[33] = Drug metabolism in mouse liver S9 fraction assessed as UGT-mediated metabolism by measuring parent compound remaining at 5 uM measured after 60 mins in presence of UDPGA by UPLC analysis; assay type: ADME, subcellular; conditions: s9, 1 h
[34] = tested on: CYP450; assay: Drug metabolism in mouse liver S9 fraction assessed as CYP450-mediated metabolism by measuring parent compound remaining at 5 uM measured immediately in presence of NADPH by UPLC analysis; assay type: ADME, subcellular; conditions: read-out: Stability
[35] = tested on: Trypanosoma brucei brucei; assay: Antitrypanosomal activity against Trypanosoma brucei brucei Squib 427 after 48 hrs by alamar blue assay; assay type: functional, organism-based; conditions: Squib 427, 48 h
[36] = tested on: MRC5; assay: Cytotoxicity against human MRC5 cells assessed as reduction in cell viability after 3 days by resazurin dye-based assay; conditions: MRC5, 72 h
[37] = tested on: Trypanosoma cruzi; assay: Antitrypanosomal activity against nifurtimox-sensitive Trypanosoma cruzi Tulahuen CL2 harboring beta-galactosidase infected in human MRC5 cells after 7 days by resazurin dye-based assay; assay type: functional, organism-based
[38] = tested on: UGT; assay: Drug metabolism in rat liver S9 fraction assessed as UGT-mediated metabolism by measuring parent compound remaining at 5 uM measured immediately in presence of UDPGA by UPLC analysis; assay type: ADME, subcellular; conditions: read-out: Stability
[39] = Inhibition of [3H]-adenosine transport at Trypanosoma brucei Adenosine transporter P2 expressed in pentamidine/diminazene/melaminophenyl arsenical resistant Trypanosoma brucei B48 bloodstream forms after 60 secs by scintillation counting analysis
[40] = tested on: UGT; assay: Drug metabolism in mouse liver S9 fraction assessed as UGT-mediated metabolism by measuring parent compound remaining at 5 uM measured immediately in presence of UDPGA by UPLC analysis; assay type: ADME, subcellular; conditions: read-out: Stability

Nc1ncnc2c1c(-c1ccccn1)cn2[C@@H]1O[C@H](CO)[C@@H](O)[C@H]1O
remaining at 0 min, 5 µM [1]: 100%
Stability [2]: 122%
EC50 [3]: 270 nM
Ki [4]: 2540 nM
Ratio EC50 [5]: 2.5
remaining at 1 h, 5 µM [6]: 92%
EC50 [7]: 31 nM
remaining at 0.5 h, 5 µM [8]: 77%
Ratio EC50 [9]: 1.6
remaining at 0.25 h, 5 µM [10]: 36.5%
selectivity ratio [11]: 487
remaining at 0 min, 5 µM [12]: 100%
remaining at 1 h, 5 µM [13]: 82%
remaining at 0.25 h, 5 µM [14]: 89%
remaining at 1 h, 5 µM [15]: 1.9%
remaining at 1 h, 5 µM [16]: 31%
EC50 [17]: 430 nM
Ratio EC50 [18]: 2.4
EC50 [19]: 200 nM
EC50 [20]: 170 nM
remaining at 0.25 h, 5 µM [21]: 112%
remaining at 0.25 h, 5 µM [22]: 96%
Stability [23]: 121%
remaining at 0 min, 5 µM [24]: 100%
Stability [25]: 123%
selectivity ratio [26]: 49
remaining at 0.5 h, 5 µM [27]: 102%
EC50 [28]: 400 nM
Stability [29]: 125%
remaining at 0.25 h, 5 µM [30]: 115%
remaining at 0.5 h, 5 µM [31]: 12.6%
remaining at 0.5 h, 5 µM [32]: 102%
Stability [33]: 122%
remaining at 0 min, 5 µM [34]: 100%
EC50 [35]: 310 nM
EC50 [36]: 15100 nM
Activity [37]: inactive
remaining at 0 min, 5 µM [38]: 100%
Ki [39]: 4570 nM
remaining at 0 min, 5 µM [40]: 100%
